Results on twelve compounds are retold here after ChEMBL document CHEMBL1135180, “Synthesis and anti-influenza virus activity of 4-guanidino-7-substituted Neu5Ac2en derivatives” (Bioorg Med Chem Lett, 2002).

Values after ≈ are worked out from the molar mass of the structure shown.

Test [1] concerns the target Neuraminidase (Influenza A virus (A/Puerto Rico/8/1934(H1N1)), UniProt P03468). The experiment in a line: Inhibition of sialidase activity. The class given is functional, Influenza A virus (strain: A/PR/8/34).
The subject of a further test is Influenza A virus. Description: Inhibition of plaque formation. The class given is functional, organism-based.

Chain of Neuraminidase (Influenza A virus (A/Puerto Rico/8/1934(H1N1)), UniProt P03468) (P03468 whole entry): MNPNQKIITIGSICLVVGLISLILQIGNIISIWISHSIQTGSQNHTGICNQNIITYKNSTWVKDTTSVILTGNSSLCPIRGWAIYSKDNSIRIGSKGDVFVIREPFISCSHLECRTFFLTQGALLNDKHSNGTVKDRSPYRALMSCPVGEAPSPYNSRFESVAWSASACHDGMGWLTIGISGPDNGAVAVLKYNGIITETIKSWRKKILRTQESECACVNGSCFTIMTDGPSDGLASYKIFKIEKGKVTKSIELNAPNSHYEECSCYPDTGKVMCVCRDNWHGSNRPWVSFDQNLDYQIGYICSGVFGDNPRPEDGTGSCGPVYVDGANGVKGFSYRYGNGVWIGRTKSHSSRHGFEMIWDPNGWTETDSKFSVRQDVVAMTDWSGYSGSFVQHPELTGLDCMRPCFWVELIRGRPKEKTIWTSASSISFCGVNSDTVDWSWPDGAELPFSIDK

In the case of `CCCCCCCCCCCCCCCC(=O)N[C@@H]([C@@H]1OC(C(=O)O)=C[C@H](N=C(N)N)[C@H]1NC(C)=O)[C@H](O)CO.O=C(O)C(F)(F)F`, the 50% inhibitory concentration (IC50) was 68.7 nM in test [1] and 80 ng/mL in the test with Influenza A virus.
For `CC(=O)N[C@H]1[C@H]([C@H](F)[C@H](O)CO)OC(C(=O)O)=C[C@@H]1NC(=N)N.O=C(O)C(F)(F)F` the same measures were 1.78 nM and 1.8 ng/mL.
With `CC(=O)N[C@H]1[C@H]([C@H](N)[C@H](O)CO)OC(C(=O)O)=C[C@@H]1NC(=N)N.O=C(O)C(F)(F)F`, the figures for the IC50 (in test [1]; with Influenza A virus) were 84 nM and 20 ng/mL, respectively.
For `CC(=O)N[C@H]1[C@H]([C@H](N=[N+]=[N-])[C@H](O)CO)OC(C(=O)O)=C[C@@H]1NC(=N)N.O=C(O)C(F)(F)F` the same measures were 3.39 nM and 0.3 ng/mL.
The like results for `CC(=O)N[C@@H]1[C@@H](N=C(N)N)C=C(C(=O)O)O[C@H]1C[C@H](O)CO.O=C(O)C(F)(F)F` were, in that order, 93 nM and 10 ng/mL.
For `CO[C@@H]([C@@H]1OC(C(=O)O)=C[C@H](N=C(N)N)[C@H]1NC(C)=O)[C@H](O)CO.O=C(O)C(F)(F)F`, 3 ng/mL corresponded to half-maximal inhibition with Influenza A virus (IC50).
The compound `CC(=O)N[C@@H]([C@@H]1OC(C(=O)O)=C[C@H](N=C(N)N)[C@H]1NC(C)=O)[C@H](O)CO` showed an IC50 in test [1] of 37.1 nM.
In the case of `CCCCCCCC(=O)N[C@@H]([C@@H]1OC(C(=O)O)=C[C@H](N=C(N)N)[C@H]1NC(C)=O)[C@H](O)CO.O=C(O)C(F)(F)F`, the IC50 was 84 nM in test [1] and 100 ng/mL in the test on Influenza A virus.
For `CCO[C@@H]([C@@H]1OC(C(=O)O)=C[C@H](N=C(N)N)[C@H]1NC(C)=O)[C@H](O)CO.O=C(O)C(F)(F)F` the same measures were 30.8 nM and 0.7 ng/mL.
For `CCC(=O)N[C@@H]([C@@H]1OC(C(=O)O)=C[C@H](N=C(N)N)[C@H]1NC(C)=O)[C@H](O)CO.O=C(O)C(F)(F)F` the same measures were 19.9 nM and 4 ng/mL.
For `CC(=O)N[C@@H]1[C@@H](NC(=N)N)C=C(C(=O)O)O[C@H]1C(F)(F)[C@H](O)CO.O=C(O)C(F)(F)F` the same measures were 1030 nM and 400 ng/mL.
Take `CC(=O)N[C@H]1[C@H]([C@H](O)[C@H](O)CO)OC(C(=O)O)=C[C@@H]1NC(=N)N` [ZANAMIVIR]: inhibition in the test with Influenza A virus was half-maximal at 1 ng/mL (≈ 3.01 nM) (IC50).
